How the values were obtained:
Type in all cases: cell-based
[1] = molecular target: T1, JNK1 (Homo sapiens, UniProt P45983); assay: Cellular assay of JNK degradation (A549 cells, Western blot), JNK1; conditions: for JNK1 degradation range: PROTAC concentration 1 μM, relative to DMSO control; for DC50: read-out: JNK1 DC50 range
T1 construct: A549 lung adenocarcinoma cells were purchased from ATCC and cultured in RPMI1640 Medium; endogenous in cells; host or cells: A549
Protocol: (§1) Protocol of the cellular assay of JNK degradation (A549 cells, Western blot). A549 lung adenocarcinoma cells were purchased from ATCC and cultured in RPMI1640 Medium (Gibco) supplemented with 10% Fetal Bovine Serum (Gibco). […] Cells were stimulated with PMA (Phorbol 12-myristate 13-acetate, Sigma) for 1 hour before harvesting. Cells were lysed in Cell Signaling lysis buffer supplemented with protease inhibitors (Thermo). The lysates were centrifuged at 20,000×g for 15 minutes to clarify, and protein concentration was determined by BCA (Pierce). Equal amounts of protein (5 micrograms) were separated by SDS-PAGE and transferred onto nitrocellulose membranes. The mermbranes were probed with antibodies against SAPK/JNK (Cell Signaling #9252), phospho-c-Jun (Cell Signaling #3270), MDM2 (Sigma M4308) and p53 (Cell Signaling #2527). HRP-conjugated anti-rabbit and anti-mouse secondary antibodies were from Cell Signaling. The bands were visualized with SuperSignal West Femto Substrate (Thermo). Quantitation was done using Image Lab Software v5.2.1.

[2] = molecular target: T2, JNK2 (Homo sapiens, UniProt P45984); assay: Cellular assay of JNK degradation (A549 cells, Western blot), JNK2; conditions: for JNK2 degradation range: PROTAC concentration 1 μM, relative to DMSO control; for DC50: read-out: JNK2 DC50 range
T2 construct: A549 lung adenocarcinoma cells were purchased from ATCC and cultured in RPMI1640 Medium; endogenous in cells; host or cells: A549
Protocol: as §1

[3] = molecular target: T3, Androgen receptor (AR) (Homo sapiens, UniProt P10275); assay: Cellular assay of androgen receptor (AR) degradation (VCaP cells, ELISA); conditions: for Dmax at 1 µM: 4 h, read-out: Target protein degradation range; for Androgen receptor (AR) degradation in VCaP cells: @ 1 μM
T3 construct: endogenous in cells; host or cells: VCaP
T3 sequence (P10275 1-920): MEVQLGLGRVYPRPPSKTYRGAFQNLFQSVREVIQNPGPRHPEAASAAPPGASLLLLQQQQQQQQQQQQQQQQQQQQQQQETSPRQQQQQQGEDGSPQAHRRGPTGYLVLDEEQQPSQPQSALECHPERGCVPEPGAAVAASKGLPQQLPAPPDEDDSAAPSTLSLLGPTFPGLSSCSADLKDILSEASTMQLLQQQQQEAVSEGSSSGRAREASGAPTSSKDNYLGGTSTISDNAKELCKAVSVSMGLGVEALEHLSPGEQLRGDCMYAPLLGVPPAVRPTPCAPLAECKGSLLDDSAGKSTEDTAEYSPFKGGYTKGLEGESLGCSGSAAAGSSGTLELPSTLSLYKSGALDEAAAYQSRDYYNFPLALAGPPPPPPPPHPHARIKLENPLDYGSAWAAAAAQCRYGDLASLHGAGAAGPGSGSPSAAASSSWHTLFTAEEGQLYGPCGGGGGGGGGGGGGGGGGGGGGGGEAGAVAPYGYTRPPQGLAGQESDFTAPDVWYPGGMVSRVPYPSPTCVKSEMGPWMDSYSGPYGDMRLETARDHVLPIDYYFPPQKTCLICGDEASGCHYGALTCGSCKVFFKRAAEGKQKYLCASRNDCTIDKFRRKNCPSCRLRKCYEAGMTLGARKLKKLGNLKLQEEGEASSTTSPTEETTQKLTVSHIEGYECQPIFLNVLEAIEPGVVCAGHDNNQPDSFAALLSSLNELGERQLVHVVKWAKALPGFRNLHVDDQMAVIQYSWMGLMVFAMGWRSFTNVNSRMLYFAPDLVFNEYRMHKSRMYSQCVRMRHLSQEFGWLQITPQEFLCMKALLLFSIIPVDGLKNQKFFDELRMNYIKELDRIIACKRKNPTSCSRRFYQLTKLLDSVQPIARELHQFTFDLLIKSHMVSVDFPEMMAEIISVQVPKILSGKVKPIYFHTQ
Protocol: Protocol of the Cellular Assay of Androgen Receptor (AR) Degradation (VCaP Cells, ELISA).
For detection Cell Signaling PathScan Sandwich Elisa Catalog #12850 Lot 11 was used. VCaP cells were cultured in ATCC DMEM+ATCC FBS and plated 40,000/well 100 μl/well in RPMI P/S with 5% CSS Omega (bovine) serum into a 96 well plate. The cells were grown for a minimum of 3 days, dosed with compounds in 0.1% DMSO (diluted with 5% CSS) and incubated with aspiration for 4 hours. 100 μl of 1× Cell Signaling lysis buffer #9803 (36 ml dH2O+4 ml Cell Signaling lysis buffer) was added. The incubation was placed on cold room shaker for 10 min at speed 8-9. 5 μl to 100 μl of Diluent was transferred to Elisa plate (0.15 ug/ml-0.075 ug/ml) and stored at 4 C overnight on cold room shaker speed 5 (gentle swirl) and then shaken next morning at 37° C. for 30 min. The preparation was washed 4×200 μl with Elisa wash buffer and aspirated with eight-channel aspirator. 100 μl/well of AR detection Ab was added after which the preparation was covered and shaken at 37° C. for 1 hr. 100 ul TMB was added, and the mixture was shaken for 5 min while under observation. When TMB turned light blue, 100 ul of Stop solution was added, and the mixture was shaken and read at 450 nm. Also read at 562 for background subtraction.

[4] = androgen receptor, VCaP cells, PROTAC concentration 1 μM, relative to DMSO control

T2 sequence (P45984 whole entry): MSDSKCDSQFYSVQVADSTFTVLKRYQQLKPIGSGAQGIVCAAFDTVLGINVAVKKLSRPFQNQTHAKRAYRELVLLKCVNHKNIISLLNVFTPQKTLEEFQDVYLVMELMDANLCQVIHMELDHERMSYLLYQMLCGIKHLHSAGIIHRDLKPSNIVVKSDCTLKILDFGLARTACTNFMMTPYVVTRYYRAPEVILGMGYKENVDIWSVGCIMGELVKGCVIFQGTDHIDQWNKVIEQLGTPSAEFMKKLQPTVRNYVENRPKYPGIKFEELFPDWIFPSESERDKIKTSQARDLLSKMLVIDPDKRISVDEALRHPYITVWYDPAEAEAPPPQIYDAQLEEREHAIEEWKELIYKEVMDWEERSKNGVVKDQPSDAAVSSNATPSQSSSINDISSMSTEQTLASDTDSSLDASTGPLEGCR
T1 sequence (P45983 whole entry): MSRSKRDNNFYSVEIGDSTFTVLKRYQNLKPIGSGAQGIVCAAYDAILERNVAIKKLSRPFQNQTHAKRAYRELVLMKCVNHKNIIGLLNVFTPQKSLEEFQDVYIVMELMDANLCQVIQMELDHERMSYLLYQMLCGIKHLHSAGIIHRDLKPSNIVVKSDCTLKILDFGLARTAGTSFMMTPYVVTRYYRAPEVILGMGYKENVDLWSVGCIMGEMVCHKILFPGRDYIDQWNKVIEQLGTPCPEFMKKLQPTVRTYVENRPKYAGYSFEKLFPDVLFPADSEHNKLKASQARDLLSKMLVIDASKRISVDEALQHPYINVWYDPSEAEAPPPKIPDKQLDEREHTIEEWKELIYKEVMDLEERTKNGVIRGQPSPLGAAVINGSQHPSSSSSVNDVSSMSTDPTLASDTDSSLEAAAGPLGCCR

JNK1 degradation range [1] | DC50 [1] | JNK2 degradation range [2] | Androgen receptor (AR) degradation in VCaP cells [3] | Compound | Dmax at 1 µM [3, 4] | also measured
A (degradation more than 60%) | 100 to 1000 nM | B (degradation between 30% and 60%) |  | CN[C@@H](C)C(=O)N[C@H](C(=O)N1CCC[C@H]1c1nc(-c2ccc(OCCOCCOCCOCCOC3CCC(Nc4nccc(-c5cnn(Cc6ccccc6)c5N(C)C)n4)CC3)c3ccccc23)cs1)C1CCCCC1 (stereo partly drawn) [Example 15, (2S)—N-[(1S)-1-cyclohexyl-2-oxo-2-[(2S)-2-[4-[4-([1-[(1r,4r)-4-([4-[1-benzyl-5-(dimethylamino)-1H-pyrazol-4-yl]pyrimidin-2-yl]amino)cyclohexyl]-1,4,7,10-tetraoxadodecan-12-yl]oxy)naphthalen-1-yl]-1,3-thiazol-2-yl]pyrrolidin-1-yl]ethyl]-2-(methylamino)propanamide] |  | 
A (degradation more than 60%) | 1 to 100 nM | A (degradation more than 60%) |  | CN[C@@H](C)C(=O)N[C@H](C(=O)N1CC[C@@H]2CCN(CCc3ccc(OCCOCCOCCOCCOC4CCC(Nc5nccc(-c6cnn(Cc7ccccc7)c6N(C)C)n5)CC4)cc3)C[C@@H]21)C1CCCCC1 (mixture of isomers) [Example 19, (2S)—N-[(1S)-1-cyclohexyl-2-oxo-2-(6-[2-[4-([1-[(1r,4r)-4-([4-[1-benzyl-5-(dimethylamino)-1H-pyrazol-4-yl]pyrimidin-2-yl]amino)cyclohexyl]-1,4,7,10-tetraoxadodecan-12-yl]oxy)phenyl]ethyl]-octahydro-1H-pyrrolo[2,3-c]pyridin-1-yl)ethyl]-2-(methylamino)propanamide] |  | DC50 [2]: 100 to 1000 nM
A (degradation more than 60%) | 1 to 100 nM | A (degradation more than 60%) |  | CN[C@@H](C)C(=O)N[C@H](C(=O)N1CC[C@@H]2CCN(CCc3ccc(OCCOCCOCCOC4CCC(Nc5nccc(-c6cnn(Cc7ccccc7)c6N(C)C)n5)CC4)cc3)C[C@@H]21)C1CCCCC1 (mixture of isomers) [Example 18, (2S)—N-[(1S)-1-cyclohexyl-2-oxo-2-[6-[2-(4-[2-[2-(2-[[(1r,4r)-4-([4-[1-benzyl-5-(dimethylamino)-1H-pyrazol-4-yl]pyrimidin-2-yl]amino)cyclohexyl]oxy]ethoxy)-ethoxy]ethoxy]phenyl)ethyl]-octahydro-1H-pyrrolo[2,3-c]pyridin-1-yl]ethyl]-2-(methylamino)propanamide] |  | DC50 [2]: 100 to 1000 nM
 |  |  |  | CN[C@@H](C)C(=O)N[C@H](C(=O)N1CCC[C@H]1C(=O)N[C@H]1c2ccccc2C[C@H]1OCCOCCOCCOc1ccc(N2C(=S)N(c3ccc(C#N)c(C(F)(F)F)c3)C(=O)C2(C)C)cc1)C(C)(C)C [Example 36, (2S)—N-[2-(2-[2-[2-(4-[3-[4-cyano-3-(trifluoromethyl)phenyl]-5,5-dimethyl-4-oxo-2-sulfanylideneimidazolidin-1-yl]phenoxy)ethoxy]ethoxy]ethoxy)-2,3-dihydro-1H-inden-1-yl]-1-[(2S)-3,3-dimethyl-2-[(2S)-2-(methylamino)propanamido]-butanoyl]pyrrolidine-2-carboxamide] | 0 to 30% | 
 |  |  |  | 1-[(2S)-3,3-dimethyl-2-[(2S)-2-(methylamino)propanamido]butanoyl]-N-[(1S,2R)-2-[[1-(4-[[(1r,3r)-3-(3-chloro-4-cyanophenoxy)-2,2,4,4-tetramethylcyclobutyl]carbamoyl]phenyl)-1,4,7,10-tetraoxadodecan-12-yl]oxy]-2,3-dihydro-1H-inden-1-yl]pyrrolidine-2-carboxamide [Example 3] |  | Target protein degradation range [3, 4]: B (degradation between 30% and 60%)
 |  |  | 18% | CN[C@@H](C)C(=O)N[C@H](C(=O)N1CCC[C@H]1C(=O)N[C@H]1c2ccccc2C[C@H]1OCCOCCOCCOc1ccc(C(=O)N[C@H]2C(C)(C)[C@H](Oc3ccc(C#N)c(Cl)c3)C2(C)C)cc1)C(C)(C)C [(2S)-1-[(2S)-3,3-dimethyl-2-[(2S)-2-(methylamino)propanamido]butanoyl]-N-[(1S,2R)-2-(2-{2-[2-(4-{[(1r,3r)-3-(3-chloro-4-cyanophenoxy)-2,2,4,4-tetramethylcyclobutyl]carbamoyl}phenoxy)ethoxy]ethoxy}ethoxy)-2,3-dihydro-1H-inden-1-yl]pyrrolidine-2-carboxamide] |  | 
 |  |  |  | CN[C@@H](C)C(=O)N[C@H](C(=O)N1CCC[C@H]1C(=O)N[C@H]1c2ccccc2C[C@H]1OCCOCCOCCOCCOCCOc1ccc(C(=O)NC2C(C)(C)C(Oc3ccc(C#N)c(Cl)c3)C2(C)C)cc1)C(C)(C)C (stereo partly drawn) [Example 1, 1-[3,3-dimethyl-(2S)-2-[(2S)-2-(methylamino)propanamido]butanoyl]-N-[(1S,2R)-2-[[1-(4-[[(1r,3r)-3-(3-chloro-4-cyanophenoxy)-2,2,4,4-tetramethylcyclobutyl]carbamoyl]phenyl)-1,4,7,10,13-pentaoxapentadecan-15-yl]oxy]-2,3-dihydro-1H-inden-1-yl]pyrrolidine-2-carboxamide] | 30 to 60% | 
 |  |  | 33% | CN[C@@H](C)C(=O)N[C@H](C(=O)N1CCC[C@H]1C(=O)N[C@H]1c2ccccc2C[C@H]1OCCOCCOCCOCCOc1ccc(C(=O)N[C@H]2C(C)(C)[C@H](Oc3ccc(C#N)c(Cl)c3)C2(C)C)cc1)C(C)(C)C [(2S)-1-[(2S)-3,3-dimethyl-2-[(2S)-2-(methylamino)propanamido]butanoyl]-N-[(1S,2R)-2-{[1-(4-1{[(1r,3r)-3-(3-chloro-4-cyanophenoxy)-2,2,4,4-tetramethylcyclobutyl]carbamoyl}phenyl)-1,4,7,10-tetraoxadodecan-12-yl]oxy}-2,3-dihydro-1H-inden-1-yl]pyrrolidine-2-carboxamide] |  | 
 |  |  |  | CN[C@@H](C)C(=O)N[C@H](C(=O)N1CCC[C@H]1C(=O)N[C@H]1c2ccccc2C[C@H]1OCCOCCOCCOCCOc1ccc(N2C(=S)N(c3ccc(C#N)c(C(F)(F)F)c3)C(=O)C2(C)C)cc1)C(C)(C)C [Example 37] | 0 to 30% | 

Compound | JNK1 degradation range [1] | DC50 [1] | JNK2 degradation range [2] | Androgen receptor (AR) degradation in VCaP cells [3] | Dmax at 1 µM [3, 4] | also measured
CN[C@@H](C)C(=O)N[C@H](C(=O)N1CCC[C@H]1C(=O)N[C@H]1c2ccccc2C[C@H]1OCCOCCOCCOCCOc1ccc(N2C(=S)N(c3ccc(C#N)c(C(F)(F)F)c3)C(=O)C2(C)C)cc1)C(C)(C)C [drawing 256, (2S)—N-[(1S,2R)-2-{[1-(4-{3-[4-cyano-3-(trifluoromethyl)phenyl]-5,5-dimethyl-4-oxo-2-sulfanylideneimidazolidin-1-yl}phenyl)-1,4,7,10-tetraoxadodecan-12-yl]oxy}-2,3-dihydro-1H-inden-1-yl]-1-[(2S)-3,3-dimethyl-2-[(2S)-2-(methylamino)propanamido]butanoyl]pyrrolidine-2-carboxamide] |  |  |  | 9% |  | 

Reference: patent US20220162163A1, “ALANINE-BASED MODULATORS OF PROTEOLYSIS AND ASSOCIATED METHODS OF USE” (Arvinas Operations, Inc., priority 2015, published 2022)
